Measurements as given in ChEMBL document CHEMBL3745680, “Meroterpenoids from a Tropical Dysidea sp. Sponge” (J Nat Prod, 2015).
Converted amounts (≈) assume the structure as drawn.

Assays:
Trichophyton rubrum = assay: Antifungal activity against Trichophyton rubrum IFO 9185 after 48 to 72 hrs at 28 degC by serial 2-fold dilution method; format: functional
Kocuria rhizophila = assay: Antibacterial activity against Kocuria rhizophila NBRC 12708 after 24 hrs at 37 degC by broth dilution method; format: functional; settings: NBRC 12708, 24 h
Staphylococcus aureus = assay: Antibacterial activity against Staphylococcus aureus ATCC 6538p after 24 hrs at 37 degC by broth dilution method; format: functional
[1] = target: Sodium/potassium-transporting ATPase; assay: Inhibition of Na+/K+ -ATPase in human intrauterine growth restriction placental membrane using 3-O-methylfluorescein phosphate by fluorometric method in presence of Kcl; format: tissue-based
[2] = Inhibition of Magnaporthe grisea Guy 11 isocitrate lyase using isocitrate as substrate by spectrophotometric based glyoxylate cycle assay; design: species or system Pyricularia grisea
Salmonella enterica = assay: Antibacterial activity against Salmonella enterica ATCC 14028 after 24 hrs at 37 degC by broth dilution method; format: functional; settings: ATCC 14028, 24 h
Aspergillus fumigatus = assay: Antifungal activity against Aspergillus fumigatus HIC 6094 after 48 to 72 hrs at 28 degC by serial 2-fold dilution method; format: functional
A549 = assay: Cytotoxicity against human A549 cells assessed as reduction in cell viability after 72 hrs by MTT assay; format: functional, cell-based; settings: A549, 72 h
Sortase A = target: T1, Sortase A (Staphylococcus aureus, UniProt Q9S446); assay: Inhibition of Staphylococcus aureus ATCC 6538p sortase A expressed in Escherichia coli using dabcyl-QALPETGEE-edans as substrate incubated for 1 hr by fluorescence spectrophotometry analysis
T1 sequence (Q9S446 whole entry): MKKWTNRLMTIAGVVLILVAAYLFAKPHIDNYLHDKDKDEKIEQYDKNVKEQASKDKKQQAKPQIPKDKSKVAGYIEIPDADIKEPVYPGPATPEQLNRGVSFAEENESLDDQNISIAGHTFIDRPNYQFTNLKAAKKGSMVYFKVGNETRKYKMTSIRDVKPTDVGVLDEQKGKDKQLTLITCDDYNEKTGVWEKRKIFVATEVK

K562 = assay: Cytotoxicity against human K562 cells assessed as reduction in cell viability after 72 hrs by MTT assay; format: functional, cell-based; settings: K562, 72 h
Proteus hauseri = assay: Antibacterial activity against Proteus hauseri NBRC 3851 after 24 hrs at 37 degC by broth dilution method; format: functional; settings: NBRC 3851, 24 h
Escherichia coli = assay: Antibacterial activity against Escherichia coli ATCC 35270 after 24 hrs at 37 degC by broth dilution method; format: functional; settings: ATCC 35270, 24 h
Candida albicans = assay: Antifungal activity against Candida albicans ATCC 10231 after 48 to 72 hrs at 28 degC by serial 2-fold dilution method; format: functional
Bacillus subtilis = assay: Antibacterial activity against Bacillus subtilis ATCC 6633 after 24 hrs at 37 degC by broth dilution method; format: functional; settings: ATCC 6633, 24 h
[3] = test system: Trichophyton mentagrophytes; assay: Antifungal activity against Trichophyton mentagrophytes IFO 40996 after 48 to 72 hrs at 28 degC by serial 2-fold dilution method; format: functional

SMILES | MIC (Trichophyton rubrum) [µg/mL] | MIC (Kocuria rhizophila) [µg/mL] | MIC (Staphylococcus aureus) [µg/mL] | IC50 [1] [µM] | IC50 [2] [µg/mL] | MIC (Salmonella enterica) [µg/mL] | MIC (Aspergillus fumigatus) [µg/mL] | IC50 (A549) [µM] | IC50 (Sortase A) [µM] | IC50 (K562) [µM] | MIC (Proteus hauseri) [µg/mL] | MIC (Escherichia coli) [µg/mL] | MIC (Candida albicans) [µg/mL] | MIC (Bacillus subtilis) [µg/mL] | MIC [3] [µg/mL]
C=C1CCC[C@H]2[C@](C)(CC3=CC(=O)C=C(N(C)CCS(=O)(=O)O)C3=O)[C@@H](C)CC[C@@]12C | > 128 | 64 (≈ 142 µM) | 128 (≈ 285 µM) | 94.5 | 93.3 (≈ 208 µM) | 128 (≈ 285 µM) | > 128 | 6.1 | > 285 | 5.7 | 128 (≈ 285 µM) | > 128 | 128 (≈ 285 µM) | 64 (≈ 142 µM) | 128 (≈ 285 µM)
C=C1CCC[C@@]23C4=C(C[C@]2(C)[C@@H](C)CC[C@@]13C)C(=O)C=C(NC)C4=O | > 128 | 2 (≈ 5.89 µM) | > 128 | > 377 |  | > 128 | > 128 | 4.9 | > 377 | 4 | > 128 | > 128 | > 128 | > 128 | 128 (≈ 377 µM)
C=C1CCC[C@H]2[C@](C)(CC3=CC(=O)C=C(NCCS(=O)(=O)O)C3=O)[C@@H](C)CC[C@@]12C | > 128 | 8 (≈ 18.4 µM) | 64 (≈ 147 µM) | 82.2 | 43.5 (≈ 99.9 µM) | 32 (≈ 73.5 µM) | > 128 | 4.2 | 272 | 6.9 | 32 (≈ 73.5 µM) | > 128 | 16 (≈ 36.7 µM) | 32 (≈ 73.5 µM) | 128 (≈ 294 µM)
C=C1CCC[C@@]23Oc4ccc(O)cc4C[C@]2(C)[C@@H](C)CC[C@@]13C | > 128 | 1 (≈ 3.2 µM) | 2 (≈ 6.4 µM) | 69.1 |  | 1 (≈ 3.2 µM) | > 128 | 5.9 | > 410 | 4.8 | 2 (≈ 6.4 µM) | > 128 | > 128 | 1 (≈ 3.2 µM) | 8 (≈ 25.6 µM)
C=C1CCC[C@@]23C4=C(C[C@]2(C)[C@@H](C)CC[C@@]13C)C(=O)C=C(NCCS(=O)(=O)O)C4=O | > 128 | 128 (≈ 295 µM) | > 128 | 285 |  | > 128 | > 128 | 2.3 | > 295 | 1.1 | > 128 | > 128 | > 128 | > 128 | > 128
C=C1CCC[C@@]23C4=C(C[C@]2(C)[C@@H](C)CC[C@@]13C)C(=O)C(OC)=CC4=O | > 128 | 8 (≈ 23.5 µM) | > 128 | > 376 | > 128 | 16 (≈ 47 µM) | > 128 | 3.3 |  | 0.7 | 16 (≈ 47 µM) | > 128 | > 128 | 16 (≈ 47 µM) | > 128
O=C(O)CC[N+](=O)[O-] |  |  |  |  | 2.5 (≈ 21 µM) |  |  |  |  |  |  |  |  |  | 
C[C@@H]1[C@H](O)[C@@H](C)/C=C/C=C/C=C/C=C/C=C/C=C/C=C/[C@H](O[C@@H]2O[C@H](C)[C@@H](O)[C@H](N)[C@@H]2O)C[C@@H]2O[C@](O)(C[C@@H](O)C[C@@H](O)[C@H](O)CC[C@@H](O)C[C@@H](O)CC(=O)O[C@H]1C)C[C@H](O)[C@H]2C(=O)O [AMPHOTERICIN B] | 1 (≈ 1.08 µM) |  |  |  |  |  | 8 (≈ 8.66 µM) |  |  |  |  |  | 0.5 (≈ 0.541 µM) |  | 4 (≈ 4.33 µM)
CC1(C)S[C@@H]2[C@H](NC(=O)[C@H](N)c3ccccc3)C(=O)N2[C@H]1C(=O)O [AMPICILLIN] |  | < 0.06 | 0.13 (≈ 0.372 µM) |  |  | 0.06 (≈ 0.172 µM) |  |  |  |  | < 0.06 | 4 (≈ 11.4 µM) |  | < 0.06 | 
C=C1CCC[C@H]2[C@](C)(Cc3cc(O)ccc3O)[C@@H](C)CC[C@@]12C [ARENAROL] | 4 (≈ 12.7 µM) | 4 (≈ 12.7 µM) | 4 (≈ 12.7 µM) | 11.4 |  | 4 (≈ 12.7 µM) | > 128 | 3.7 | > 407 | 3.4 | 2 (≈ 6.36 µM) | > 128 | 4 (≈ 12.7 µM) | 4 (≈ 12.7 µM) | 8 (≈ 25.4 µM)
COc1ccc2cc3[n+](cc2c1OC)CCc1cc2c(cc1-3)OCO2 [BERBERINE CHLORIDE] |  |  |  |  |  |  |  |  | 109 |  |  |  |  |  | 
